Assay results taken from patent US11723910B1, “Compositions and methods for modulating the endothelial barrier” (University of South Florida, priority 2019, dated 2023).

Legend:
HUVEC = test: Seahorse glycolytic rate assay in HUVEC; assay type: cell-based, human; conditions: Afobazole 300 μM 3 hours prior to the assay vs vehicle
Experimental: FIGS. 2A and 2B show glycolytic PER (glycoPER) and oxygen consumption rate (OCR) obtained from glycolytic rate assay of cells treated with 100 μM PRE-084 or vehicle for 3 hours. […] FIGS. 2D-2H show assay parameters obtained from the glycolytic rate assay. FIGS. 2I-2K show assay parameters from ATP rate assay. *P<0.05.
(§1) HUVEC and media were obtained from LifeLine cell technology, PRE-084 from Tocris Biotechne, and CCCP from Abcam. TER was determined with an Electrical Cell-Substrate Impedance Sensor (ECIS; Applied Biophysics). For transfection, 200 nM σ1 siRNA (SEQ ID NO: 2: GGCUUGAGCUCACCACCUA) or control non-targeting RNA (SEQ ID NO: 3: UGGUUUACAUGUUUUCCUA) purchased from Dharmacon was introduced with the Nucleofector II device (Lonza). Cell culture procedures, TER recordings, and protein isolation and transfection protocols have been previously described. Western blotting was done using WES (Protein Simple). Rabbit anti σ1 was purchased from Novus Biologicals NBP1-82479 and mouse anti (β-actin was from cell signaling #3700. Both primaries were used at 1:50 dilution. Seahorse xfp analyzer was used for glycolytic rate and ATP rate with assay kits (Agilent) according to manufacturer's instructions using 40.000 cells/well. Calculation of assay parameters was done using Wave software with its built-in report generators and statistical analysis was done using Prism 7.

[1] = tested on: HUVEC monolayers treated with CCCP; test: CCCP-induced barrier disruption (TER) in HUVEC; assay type: cell-based, human; conditions: 10 μM CCCP
Experimental: (§2) Because ATP depletion has been reported to disrupt the endothelial barrier (Unno N, et al. (1996) Hyperpermeability and ATP depletion induced by chronic hypoxia or glycolytic inhibition in Caco-2BBe monolayers. Am J Physiol 270(6 Pt 1):G1010-1021), assessment was performed to determine whether carbonyl cyanide m-chlorophenyl hydrazine (CCCP) induced mitochondrial insult causes barrier disruption and whether the barrier-enhancing properties of PRE-084 can counteract this effect. […] To further validate the contribution of σ1 to endothelial barrier function, siRNA was used to selectively reduce σ1 expression in HUVEC.
(§3) HUVEC and media were obtained from LifeLine cell technology, PRE-084 from Tocris Biotechne, and CCCP from Abcam. TER was determined with an Electrical Cell-Substrate Impedance Sensor (ECIS; Applied Biophysics). For transfection, 200 nM σ1 siRNA (SEQ ID NO: 2: […]) or control non-targeting RNA (SEQ ID NO: 3: […]) purchased from Dharmacon was introduced with the Nucleofector II device (Lonza). Cell culture procedures, TER recordings, and protein isolation and transfection protocols have been previously described. Western blotting was done using WES (Protein Simple). […]

[2] = tested on: human umbilical vein endothelial cell (HUVEC) monolayers; test: Transendothelial electrical resistance (TER, ECIS) of HUVEC monolayers; assay type: cell-based; conditions: mean TER at 70 h vs non-targeting RNA
Experimental: as §1

sigma-1 receptor (σ1) = test: Western blot of σ1 expression after siRNA knockdown in HUVEC; assay type: cell-based, human; conditions: 200 nM σ1 siRNA
Experimental: as §2, §3

## CCOc1ccc2nc(SCCN3CCOCC3)[nH]c2c1 [Afobazole]
HUVEC
  glycolytic proton efflux rate: enhances
  oxygen consumption rate: lowers

## carbonyl cyanide m-chlorophenyl hydrazine [CCCP]
[1]
  transendothelial electrical resistance (TER) after CCCP: significantly lowered

## σ1 siRNA: σ1 siRNA (SEQ ID NO: 2: GGCUUGAGCUCACCACCUA) purchased from Dharmacon (listed as RNA, chemistry not given here)
[2]
  TER in σ1 siRNA-treated cells compared to control: significant decreases
sigma-1 receptor (σ1); 48-h post-transfection
  decrease in σ1 protein compared to controls: 47%
sigma-1 receptor (σ1); 70-h post-transfection
  decrease in σ1 protein compared to controls: 74%
